Results taken from ChEMBL document CHEMBL1201862, “PubChem BioAssay data set” (2004).
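These data come from cells grown in 96-well plates and exposed to compound for 48 hours at five concentrations. Abbreviation: GI50, concentration required for 50% inhibition of growth.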 Active and inactive are the calls of the source. Cut-off read from the data, not from the text of the source: active = GI50 up to about 1.1 µM and inactive = higher.

What was measured:
Experiment in all cases: NCI anticancer screen, dose series, 48 h
[1] = tested on: DLD-1
[2] = tested on: M19-MEL
[3] = tested on: SNB-78
[4] = tested on: DMS-273
[5] = tested on: HOP-18
[6] = tested on: RXF 631
[7] = tested on: KM-20L2
[8] = tested on: XF498
[9] = tested on: DMS-114

Row | Structure (SMILES) | GI50 [1] | GI50 [2] | GI50 [3] | GI50 [4] | GI50 [5] | GI50 [6] | GI50 [7] | GI50 [8] | GI50 [9]
1 | CC(=O)Nc1ccc(C2CC(c3ccc([N+](=O)[O-])cc3)=Nc3ccccc3S2)cc1 (stereo unspecified) | 13.3 µM (inactive) | 18.8 µM (inactive) | 36.1 µM (inactive) | 24.4 µM (inactive) | 24.3 µM (inactive) | 22.9 µM (inactive) | 20.2 µM (inactive) | 13.3 µM (inactive) | 
2 | COC(=O)C1(C(=O)OC)CC2c3c(c4ccccc4n3C)CC(C1=O)N2Cc1ccccc1 (stereo unspecified) | > 100 µM (inactive) | > 100 µM (inactive) | > 100 µM (inactive) | > 100 µM (inactive) |  | > 100 µM (inactive) | > 100 µM (inactive) | > 100 µM (inactive) | > 100 µM (inactive)
3 | CCCCCCCCC(C)CCCCCCCCC(=O)OCC(COP(=O)([O-])OCC[N+](C)(C)C)OC(=O)CCCCCCCCC(C)CCCCCCCC (stereo unspecified) | > 100 µM (inactive) | > 100 µM (inactive) | > 100 µM (inactive) | > 100 µM (inactive) | > 100 µM (inactive) | > 100 µM (inactive) | > 100 µM (inactive) |  | > 100 µM (inactive)
4 | Cc1ccc2[nH]c(=O)c(C(C#N)c3ccccc3)nc2c1 (stereo unspecified) | 42.6 µM (inactive) |  | 28.1 µM (inactive) | 44.5 µM (inactive) | 24.7 µM (inactive) | 44.1 µM (inactive) | 37.2 µM (inactive) |  | 
5 | Cc1ccc(NC(=O)CC(=O)n2nc(C)c(/N=N/c3ccccc3C(=O)O)c2C)cc1 | > 100 µM (inactive) | > 100 µM (inactive) | > 100 µM (inactive) | > 100 µM (inactive) |  | > 100 µM (inactive) | > 100 µM (inactive) | > 100 µM (inactive) | > 100 µM (inactive)
6 | Cc1[nH]c2ccccc2c1C1Cc2ccccc2N1C(=O)/C=C/C(=O)O (stereo unspecified) | > 100 µM (inactive) | > 100 µM (inactive) | > 100 µM (inactive) | > 100 µM (inactive) |  | 18.4 µM (inactive) | > 100 µM (inactive) | 32.4 µM (inactive) | > 100 µM (inactive)
7 | O=C(CSc1nnc(-c2ccc(/N=C\c3ccc(Cl)cc3)cc2)o1)Nc1cccc(Cl)c1 |  | > 100 µM (inactive) | > 100 µM (inactive) | > 100 µM (inactive) | > 100 µM (inactive) |  | > 100 µM (inactive) | > 100 µM (inactive) | > 100 µM (inactive)
8 | S=C(Nc1ccccc1)N(/N=C/C=C/c1ccccc1)c1nnc(-c2ccccc2)c(-c2ccccc2)n1 | 76.4 µM (inactive) | 64.9 µM (inactive) | > 100 µM (inactive) | 45.5 µM (inactive) |  | 80.7 µM (inactive) | > 100 µM (inactive) | 61 µM (inactive) | 26.4 µM (inactive)
9 | Cc1ccccc1N1C(=O)/C(=C/c2ccc(N(CCC#N)CCC#N)cc2)N=C1c1cc([N+](=O)[O-])ccc1Cl | 79.1 µM (inactive) |  | > 100 µM (inactive) | 78.9 µM (inactive) | > 100 µM (inactive) | > 100 µM (inactive) | > 100 µM (inactive) |  | > 100 µM (inactive)
10 | Cn1nc(-c2ccccc2)c(C(=O)/C=C/c2ccccc2)c(N2CCOCC2)c1=O | 20.4 µM (inactive) | 23.1 µM (inactive) |  | 19.8 µM (inactive) | 28.6 µM (inactive) |  | 18.1 µM (inactive) | 12.7 µM (inactive) | 16.8 µM (inactive)
11 | CCOC(=O)NC(=O)c1cn(CCN2CCN(C(=O)NCCCCCCNC(=O)N3CCN(CCn4cc(C(=O)NC(=O)OCC)c(=O)n(CCN(CC)CC)c4=O)CC3)CC2)c(=O)n(CCC(CC)CC)c1=O | > 100 µM (inactive) | > 100 µM (inactive) | > 100 µM (inactive) | > 100 µM (inactive) | > 100 µM (inactive) |  | > 100 µM (inactive) |  | > 100 µM (inactive)
12 | COc1ccc(C2C(Cl)C(=O)N2NC(=O)c2ccc(N)cc2)cc1OC (stereo unspecified) | 3.66 µM (inactive) | 4.95 µM (inactive) | 63.7 µM (inactive) | 2.72 µM (inactive) |  |  | 12.1 µM (inactive) | 1 µM (active) | 
13 | OCC(O)C(O)C(O)C1SC(c2ccccc2)=NN1c1ccccc1 (stereo unspecified) | > 100 µM (inactive) | > 100 µM (inactive) | 44.4 µM (inactive) | > 76.6 µM (inactive) | 51.8 µM (inactive) | 49.3 µM (inactive) | > 100 µM (inactive) | 30.1 µM (inactive) | > 84.7 µM (inactive)
14 | O=[N+]([O-])c1cc(Cl)ccc1OCc1ccccc1 | 82.2 µM (inactive) | 44.3 µM (inactive) | 32.8 µM (inactive) | 54.6 µM (inactive) |  | > 100 µM (inactive) |  | 20.4 µM (inactive) | 29.4 µM (inactive)
15 | O=c1c2cc(-c3ccccc3)sc2nc2sc(-c3ccccc3)nn12 | > 100 µM (inactive) | > 100 µM (inactive) | > 100 µM (inactive) | > 100 µM (inactive) | > 100 µM (inactive) | > 100 µM (inactive) | > 100 µM (inactive) | > 100 µM (inactive) | > 100 µM (inactive)
16 | CC(=O)c1cccc(NC(=O)C(=O)C(C2OC(=O)c3ccccc32)[N+](=O)[O-])c1 (stereo unspecified) | > 100 µM (inactive) | > 100 µM (inactive) | > 100 µM (inactive) |  |  | > 100 µM (inactive) | > 100 µM (inactive) | > 100 µM (inactive) | > 100 µM (inactive)
17 | O=C(O)C(=O)/C=C\c1ccc(Cl)cc1 | > 100 µM (inactive) | > 100 µM (inactive) | > 100 µM (inactive) | > 100 µM (inactive) | > 100 µM (inactive) |  | > 100 µM (inactive) | > 100 µM (inactive) | 84.1 µM (inactive)
18 | O=C1C2C3C=C4c5ccccc5N(c5ccccc5)C4(C2C(=O)N1c1ccc([N+](=O)[O-])cc1)[C@H]1C(=O)N(c2ccc([N+](=O)[O-])cc2)C(=O)[C@@H]31 (stereo partly specified) | > 100 µM (inactive) | > 100 µM (inactive) | > 100 µM (inactive) | > 100 µM (inactive) | > 100 µM (inactive) |  | > 100 µM (inactive) |  | > 100 µM (inactive)
19 | COC(=O)C1=C(O)c2cc(OC)c(OC)c(OC)c2C(c2ccc3c(c2)OCO3)[C@@H]1C(=O)OC (stereo partly specified) | 4.69 µM (inactive) |  | 15.1 µM (inactive) | 3.02 µM (inactive) | 23.1 µM (inactive) | 5.82 µM (inactive) | 2.36 µM (inactive) |  | 2.4 µM (inactive)
20 | CCN(CC)CCCC(C)NC(=O)c1ccc2c(c1)C(=O)c1ccccc1C2=O (stereo unspecified) | 17.5 µM (inactive) | 16.7 µM (inactive) | 22.9 µM (inactive) | 21.9 µM (inactive) | > 85.5 µM (inactive) | 24.1 µM (inactive) | 18.3 µM (inactive) | 16.1 µM (inactive) | 11.4 µM (inactive)
